From PMC13095444, “Discovery of RGS2-FBXO44 interaction inhibitors using a cell-based NanoBit assay” (Molecular Pharmacology, 2025)

What was measured:
[1] = tested on: HEK-293T-RGS2-FBXO44 NanoBit cells; test: Cell viability assay (GF-AFC fluorescence) multiplexed with NanoBit; assay type: cell-based, Human; details: 100 μM, 16–18 hours, fresh powder
Experimental: The cells were plated in DMEM without phenol red (Gibco, #21063), 0.1% BSA in a white, tissue culture-treated 384-well plate (Perkin Elmer) at 15,000 cells/well, unless indicated otherwise, and allowed to attach. The plate was centrifuged at 212 × g for 30 seconds to aid in even cell adherence. Compound treatments were initiated 4–5 hours after plating. Following indicated treatment times, media was removed from the plate using BioTek ELx405 plate washer. Additionally, 10 μL of Hank’s Balanced Salt solution (HBSS) with 0.1% BSA was added to each well, followed by 5 μL of glycyl-phenylalanyl-aminofluorocoumarin (GF-AFC; MP Biomedicals) diluted 1:1000 in 100 mM HEPES. Plates were then centrifuged at 212 × g for 30 seconds and then incubated at 37 °C for 30 minutes. Fluorescence was detected on a Synergy Neo2 multimode plate reader (BioTek/Agilent).
Our primary assay using the HEK-293T RGS2-FBXO44 NanoBit cell line was extensively optimized to ensure maximum quality for screening. Coupling a fluorescent cell viability assay with our screen would allow us to rule out cytotoxic compounds while also hopefully reducing outliers from pipetting errors while plating cells. Thus, we multiplexed our NanoBit assay with cell viability using a cell-permeable fluorogenic protease substrate (glycyl-phenylalanyl-aminofluorocoumarin; GF-AFC; [Niles et al, 2007]), which can be combined with a luminescent readout without interfering with the luciferase signal. We previously utilized a similar multiplexing strategy in several screens ([Sjögren et al, 2012]; [Raveh et al, 2014]; [Sjögren et al, 2015]). We assessed and optimized treatment conditions (time, temperature, and reagent volume), cell density, buffer composition, and DMSO tolerance. In addition to the supplied proprietary LCS buffer (Promega), we also tested DMEM, 0.1% BSA, PBS, and HBSS (Supplemental Fig. 1A–C). […] The luminescent signal was stable up to 45 minutes after reagent addition, and we chose to run subsequent assays using 20 minutes of incubation time (Supplemental Fig. 1E). We also observed no effect on either viability or luminescence signal at DMSO concentrations <1% (Data not shown).
(§1) HEK-293T-RGS2-FBXO44 NanoBit cells were treated for 16–18 hours with compound at 100 μM. This relatively high concentration was chosen because of the challenging nature of our assay (intracellular PPI inhibition). Parental HEK-293T cells were used as a negative control. […] Based on these criteria, 97 compounds were identified as hits from our primary screen (6.1% initial hit rate). To confirm hits, the same assay was repeated in triplicate, which delivered 34 compounds that reached the threshold for inhibition in at least 2 replicates with <25% cell toxicity (Fig. 2C; Supplemental Table 1), thus rendering a final hit rate of 2.1%.

[2] = biological target: T1, RGS2-FBXO44 interaction (Homo sapiens, UniProt P41220); test: RGS2-FBXO44 NanoBit assay (HEK-293T RGS2-SmBiT/LgBiT-FBXO44 stable clone #6); assay type: cell-based; details: for % Inhibition @ 100 μM of RGS2-FBXO44 NanoBit signal: 16–18 hours, fresh powder, luminescence normalized to viability, vs nontreated cells; for IC50: concentrations 500 to 0.01 μM, RLU normalized to viability (RFU), read-out: IC50 (μM), inhibition of RGS2-FBXO44 NanoBit signal
T1 construct: expressed in transfected cells
T1 sequence (P41220 1-211): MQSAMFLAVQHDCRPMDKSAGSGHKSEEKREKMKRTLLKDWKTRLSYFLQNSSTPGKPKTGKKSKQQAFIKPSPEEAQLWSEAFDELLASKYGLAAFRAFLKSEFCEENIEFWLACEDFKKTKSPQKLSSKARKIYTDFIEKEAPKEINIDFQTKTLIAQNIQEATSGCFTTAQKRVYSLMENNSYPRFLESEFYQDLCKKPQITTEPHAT
Experimental: Nano-Glo Live Cell Substrate (LCS) was diluted 1:50 in HBSS to form a 2× stock, and then, 15 μL was added to each well. Plates were shaken on an orbital shaker at 500 rpm for 5 minutes protected from light and then spun down at 1000 rpm for 30 seconds. Plates were incubated at room temperature for 20 minutes, and then, luminescence was detected on a Synergy Neo2 multimode plate reader.
as §1
Fresh powders of 20 compounds were purchased and reassayed for their ability to inhibit the RGS2-FBXO44 NanoBit signal, using the same assay paradigm as in the primary screen (Fig. 3; Table 1). […] Nevertheless, all compounds were confirmed to inhibit the RGS2-FBXO44 NanoBit signal at this high concentration.
We next assessed the concentration-dependent effect of our 20 hits. Compounds were assayed at concentrations ranging from 500 to 0.01 μM. NanoBit luminescence (relative luminescence units) was normalized to viability (RFU) and presented as a percentage of untreated cells.

SMILES | Viability (% of Control) [1] | % Inhibition @ 100 μM of RGS2-FBXO44 NanoBit signal [2] | IC50 [2]
CCOc1ccc(S(=O)(=O)N2CCCCCC2)cc1C [Compound 8] | 80.6∗∗∗∗ % of Control | 86.1∗∗∗∗ % | 9.2 µM
O=S(=O)(C1CC1)N1CCCCC(c2ccc(Cl)cc2)C1 (stereo not drawn) [Compound 9] | 103.6 % of Control | 74.5∗∗∗∗ % | 9.7 µM
CCCOc1cc(S(=O)(=O)NCC2CCCO2)ccc1Cl (stereo not drawn) [Compound 19] | 85.8∗∗ % of Control | 74.8∗∗∗∗ % | 39.6 µM
CCOc1cc(C)c(C)cc1S(=O)(=O)N1CCN(c2ccccc2)CC1 [Compound 11] | 139.6 % of Control | 49.6∗∗∗∗ % | 29 µM
CCc1nc(C)cn1S(=O)(=O)c1cc(OC)c(C)cc1C [Compound 20] | 44.4∗∗∗∗ % of Control | 67.3∗∗∗∗ % | 4.4 µM
O=C(Cc1ccccc1Cl)N(CCc1cccs1)C1CCOCC1 [Compound 18] | 81.5∗∗∗∗ % of Control | 51.2∗∗∗∗ % | 122 µM
CCOc1ccc(S(=O)(=O)N(Cc2cccn2C)C2CC2)cc1F [Compound 6] | 116.6 % of Control | 36.8∗∗∗∗ % | 25.6 µM
Cc1cc(C)c(C)c(S(=O)(=O)N2CCCC2)c1C [Compound 7] | 91.7 % of Control | 56.5∗∗∗∗ % | 42.1 µM
CCCCNC(=O)c1nnn(-c2ccccc2)c1C(C)C [Compound 16] | 93.7 % of Control | 75.8∗∗∗∗ % | 54.8 µM
CCOc1ccc(C(=O)NCc2ccnc(N3CCCCC3)n2)cc1 [Compound 4] | 89.5 % of Control | 47.2∗∗∗∗ % | 38.2 µM
